For eight molecules, IC50 results are on record in patent publication US12281122B1, “PI3K inhibitors” (Cogent Biosciences, Inc., priority 2023, dated 2025).

Experiment [1] deals with SKBR3 (PI3Kα-Wild Type) cell line. Nature of the experiment: HTRF phospho-AKT(S473) cell assay in SKBR3 cells. It is filed as cell-based, human. The gist of the method: (§1)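 T47D (PI3Kα-H1047R; RPMI, 10% FBS, insulin) and SKBR3 (wild-type PI3Kα; McCoy's 5A, 10% FBS) cells treated 2 h at 37 °C with 12-point 1:3 dilutions, top 5 μM and 10 μM respectively, ≤0.5% DMSO. SKBR3 stimulated with 70 ng/ml PDGF-BB for the last 15 min; lysate pAKT(S473) by HTRF, IC50 from curves.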

Experiment [2] has as its system T47D (PI3Kα-H1047R) cell line. Nature of the experiment: HTRF phospho-AKT(S473) cell assay in T47D cells. It is filed as cell-based, human. The gist of the method:
as §1
In general terms: Time-resolved FRET reads energy transfer from a long-lived donor to a nearby acceptor.

Setting [3] is: Homo sapiens, SK-BR-3; HTRF phospho-AKT(S473), SKBR3 (PI3Kα-Wild Type) cells, 2 hours compound incubation, PDGF-BB stimulated.
[4] abbreviates: Homo sapiens; HTRF phospho-AKT(S473), T47D (PI3Kα-H1047R) cells, 2 hours compound incubation.
The mark [5] stands for this setting: Homo sapiens, SK-BR-3; SKBR3 (PI3Kα-Wild Type) cells, HTRF phospho-AKT(S473), 2 hours compound incubation, PDGF-BB stimulated.
Where [6] appears, read: Homo sapiens; T47D (PI3Kα-H1047R) cells, HTRF phospho-AKT(S473), 2 hours compound incubation.

The structures appear in SMILES notation. Bounds are passed on as bounds.

The IC50 is the point on the concentration scale where inhibition reaches its midpoint. A higher IC50 goes with weaker potency. On to `Cc1cc([C@@H](C)Nc2ccc(Cl)nc2C(=O)NS(C)(=O)=O)c2nc(N3C[C@@H]4[C@H](C3)[C@H]4c3nnn(C)n3)n(C)c(=O)c2c1` [Compound 496, 6-chloro-3-(((R)-1-(3,6-dimethyl-2-((1R,5S,6R)-6-(2-methyl-2H-tetrazol-5-yl)-3-azabicyclo[3.1.0]hexan-3-yl)-4-oxo-3,4-dihydroquinazolin-8-yl)ethyl)amino)-N-(methylsulfonyl) picolinamide], for which the figures for the IC50 in experiment [1] (setting [3]) and in experiment [2] (setting [4]) were 1000 to 5000 nM and less than 250 nM, respectively.

Turning to `CCS(=O)(=O)NC(=O)c1nc(Cl)ccc1N[C@H](C)c1cc(C)cc2c(=O)n(C)c(N3Cc4ccc(F)cc4C3)nc12` [Compound 110, (R)-6-chloro-N-(ethylsulfonyl)-3-((1-(2-(5-fluoroisoindolin-2-yl)-3,6-dimethyl-4-oxo-3,4-dihydroquinazolin-8-yl)ethyl)amino) picolinamide], the IC50 in experiment [1] (setting [5]) was 1000 to 5000 nM; in experiment [2] (setting [6]), 250 to 500 nM.

Take `Cc1cc([C@@H](C)Nc2ccc(Cl)nc2C(=O)NS(C)(=O)=O)c2nc(N3CCC(c4n[nH]cc4F)CC3)n(C)c(=O)c2c1` [Compound 420, (R)-6-chloro-3-((1-(2-(4-(4-fluoro-1H-pyrazol-3-yl)piperidin-1-yl)-3,6-dimethyl-4-oxo-3,4-dihydroquinazolin-8-yl)ethyl)amino)-N-(methylsulfonyl) picolinamide]: the IC50 in experiment [1] (setting [5]) was in the range of 1000 to 5000 nM; in experiment [2] (setting [6]) it was 250 to 500 nM.

In the case of `Cc1cc([C@@H](C)Nc2ccc(Cl)nc2C(=O)NS(C)(=O)=O)c2nc(N3CCC(c4ccn(C5COC5)n4)CC3)n(C)c(=O)c2c1` [Compound 447, (R)-6-chloro-3-((1-(3,6-dimethyl-2-(4-(1-(oxetan-3-yl)-1H-pyrazol-3-yl)piperidin-1-yl)-4-oxo-3,4-dihydroquinazolin-8-yl)ethyl)amino)-N-(methylsulfonyl) picolinamide], the IC50 in experiment [1] (setting [3]) is 1000 to 5000 nM; in experiment [2] (setting [4]), less than 250 nM.

In the case of `Cc1cc([C@@H](C)Nc2ccc(Cl)nc2C(=O)NS(C)(=O)=O)c2nc(N3C[C@@H]4C[C@H]3CN4c3nccnc3C)n(C)c(=O)c2c1` [Compound 726, 6-chloro-3-(((R)-1-(3,6-dimethyl-2-((1S,4S)-5-(3-methylpyrazin-2-yl)-2,5-diazabicyclo[2.2.1]heptan-2-yl)-4-oxo-3,4-dihydroquinazolin-8-yl)ethyl)amino)-N-(methylsulfonyl) picolinamide], the IC50 lay in the range of 1000 to 5000 nM in experiment [1] (setting [3]) and 250 to 500 nM in experiment [2] (setting [4]).

`Cc1cc([C@@H](C)Nc2ccc(Cl)nc2C(=O)NS(C)(=O)=O)c2nc(N3CCC(n4nncc4C)CC3)n(C)c(=O)c2c1` [Compound 626, (R)-6-chloro-3-((1-(3,6-dimethyl-2-(4-(5-methyl-1H-1,2,3-triazol-1-yl)piperidin-1-yl)-4-oxo-3,4-dihydroquinazolin-8-yl)ethyl)amino)-N-(methylsulfonyl) picolinamide]: the IC50 was in the range of 1000 to 5000 nM in experiment [1] (setting [3]) and 250 to 500 nM in experiment [2] (setting [4]).

Take `Cc1cc([C@@H](C)Nc2ccc(Cl)nc2C(=O)NS(C)(=O)=O)c2nc(N3CCC[C@@H](c4cc[nH]n4)C3)n(C)c(=O)c2c1` (relative stereo) [Compound 218, 3-(((R)-1-(2-((R*)-3-(1H-pyrazol-3-yl)piperidin-1-yl)-3,6-dimethyl-4-oxo-3,4-dihydroquinazolin-8-yl)ethyl)amino)-6-chloro-N-(methylsulfonyl) picolinamide]: the IC50 was 1000 to 5000 nM in experiment [1] (setting [5]) and less than 250 nM in experiment [2] (setting [6]).

On to `Cc1cc([C@@H](C)Nc2ccc(Cl)nc2C(=O)NS(C)(=O)=O)c2nc(-c3ccc(OC4CCN(CC(F)F)CC4)nc3)n(C)c(=O)c2c1` [Compound 815, (R)-6-chloro-3-((1-(2-(6-((1-(2,2-difluoroethyl)piperidin-4-yl)oxy)pyridin-3-yl)-3,6-dimethyl-4-oxo-3,4-dihydroquinazolin-8-yl)ethyl)amino)-N-(methylsulfonyl) picolinamide], for which the values for the IC50 in experiment [1] (setting [3]) and in experiment [2] (setting [4]) were no less than 5000 nM and 250 to 500 nM, respectively.
